According to ChEMBL document CHEMBL1201862, “PubChem BioAssay data set” (2004):
Calls of active or inactive are those of the source.

How the values were obtained:
Cytochrome P450 3A4 = Cytochrome P450 3A4 (Homo sapiens, UniProt P08684);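 also: CYP3A4 tested as one member of a cytochrome P450 panel screen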
Cytochrome P450 1A2 = target: T1, Cytochrome P450 1A2 (Homo sapiens, UniProt P05177);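 also: PubChem cytochrome P450 panel assay, CYP1A2 panel member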
T1 sequence (P05177 whole entry): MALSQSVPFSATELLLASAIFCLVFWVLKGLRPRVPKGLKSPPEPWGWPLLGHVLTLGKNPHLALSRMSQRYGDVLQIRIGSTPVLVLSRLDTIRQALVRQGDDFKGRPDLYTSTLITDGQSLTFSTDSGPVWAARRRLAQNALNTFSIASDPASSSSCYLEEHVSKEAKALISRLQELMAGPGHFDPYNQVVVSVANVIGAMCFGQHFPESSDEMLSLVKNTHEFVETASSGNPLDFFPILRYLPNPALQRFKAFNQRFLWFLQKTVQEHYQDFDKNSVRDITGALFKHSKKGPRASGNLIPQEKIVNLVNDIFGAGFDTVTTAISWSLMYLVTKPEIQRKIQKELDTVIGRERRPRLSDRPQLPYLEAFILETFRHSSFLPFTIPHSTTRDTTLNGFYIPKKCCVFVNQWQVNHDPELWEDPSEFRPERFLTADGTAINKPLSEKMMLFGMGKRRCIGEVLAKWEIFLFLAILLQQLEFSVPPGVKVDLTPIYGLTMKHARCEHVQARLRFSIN

[1] = C. albicans growth with fluconazole, confirmation, fluorescence, retest (AID 2467); format: functional, cell-based
[2] = NIH-3T3 fibroblast cytotoxicity, dose response, cytotoxicity control, cell-based, fluorescence, Alamar Blue, secondary assay (AID 2327); format: functional;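 also: NIH-3T3 mouse fibroblasts cultured with fluconazole at 8 µg/mL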
[3] = target: T2, Rac GTPase-activating protein 1 (Homo sapiens, UniProt Q9H0H5); assay: MgcRacGAP GTPase-activating activity inhibitors, confirmation, biochemical, ADP Hunter fluorescence, primary and confirmatory (AID 624330); format: functional
T2 sequence (Q9H0H5 whole entry): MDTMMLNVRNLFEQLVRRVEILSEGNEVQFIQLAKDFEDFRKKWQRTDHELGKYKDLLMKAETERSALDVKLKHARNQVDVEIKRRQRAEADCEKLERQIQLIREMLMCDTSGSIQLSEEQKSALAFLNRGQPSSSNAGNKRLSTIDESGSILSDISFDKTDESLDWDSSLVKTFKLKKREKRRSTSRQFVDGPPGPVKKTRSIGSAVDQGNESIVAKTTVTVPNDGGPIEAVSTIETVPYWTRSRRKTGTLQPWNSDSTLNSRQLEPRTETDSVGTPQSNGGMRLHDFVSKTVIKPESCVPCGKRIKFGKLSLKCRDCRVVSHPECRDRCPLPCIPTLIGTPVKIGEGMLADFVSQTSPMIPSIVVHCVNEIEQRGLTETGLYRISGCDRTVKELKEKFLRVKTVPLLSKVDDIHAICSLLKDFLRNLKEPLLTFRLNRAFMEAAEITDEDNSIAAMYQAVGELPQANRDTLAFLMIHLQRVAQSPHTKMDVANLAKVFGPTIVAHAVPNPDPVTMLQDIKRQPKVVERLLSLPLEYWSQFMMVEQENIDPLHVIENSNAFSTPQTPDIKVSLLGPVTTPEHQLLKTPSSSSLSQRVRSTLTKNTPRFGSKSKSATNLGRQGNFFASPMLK

[4] = target: T3, RNA-binding protein pos-1 (Caenorhabditis elegans, UniProt G5EF15); assay: inhibitors of POS-1/mex-3 RNA binding, dose response, biochemical, fluorescence polarization (AID 1964);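 also: purified POS-1 fused to maltose binding protein made in E. coli; potency of compounds blocking POS-1 binding to fluorescent RNA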
T3 sequence (G5EF15 whole entry): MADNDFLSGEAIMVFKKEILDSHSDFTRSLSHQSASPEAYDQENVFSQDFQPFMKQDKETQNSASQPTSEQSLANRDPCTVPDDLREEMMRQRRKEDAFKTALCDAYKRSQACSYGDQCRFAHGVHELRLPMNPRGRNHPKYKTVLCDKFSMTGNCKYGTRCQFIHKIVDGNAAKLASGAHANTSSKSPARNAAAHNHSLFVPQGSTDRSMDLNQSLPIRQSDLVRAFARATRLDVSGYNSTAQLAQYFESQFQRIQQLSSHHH

[5] = target: T4, Zinc finger protein mex-5 (Caenorhabditis elegans, UniProt Q9XUB2); assay: MEX-5/TCR-2 RNA interaction inhibitors, dose response, biochemical, C. elegans, fluorescence polarization (AID 1960)
T4 sequence (Q9XUB2 whole entry): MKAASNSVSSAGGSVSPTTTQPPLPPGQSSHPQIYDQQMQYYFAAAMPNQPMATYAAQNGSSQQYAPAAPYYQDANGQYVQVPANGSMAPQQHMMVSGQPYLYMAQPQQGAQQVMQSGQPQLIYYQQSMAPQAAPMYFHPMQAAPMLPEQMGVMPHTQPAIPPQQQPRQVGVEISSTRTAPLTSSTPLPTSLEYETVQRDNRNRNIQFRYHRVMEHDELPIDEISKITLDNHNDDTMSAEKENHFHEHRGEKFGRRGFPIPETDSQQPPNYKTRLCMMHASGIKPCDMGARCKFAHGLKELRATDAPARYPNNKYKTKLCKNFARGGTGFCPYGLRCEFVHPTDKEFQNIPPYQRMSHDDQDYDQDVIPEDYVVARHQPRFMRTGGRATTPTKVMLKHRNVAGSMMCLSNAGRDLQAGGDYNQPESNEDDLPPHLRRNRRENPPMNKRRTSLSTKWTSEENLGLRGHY

Cytochrome P450 2D6 = Cytochrome P450 2D6 (Homo sapiens, UniProt P10635);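 also: CYP2D6 member of a cytochrome P450 panel assay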
Chain of Cytochrome P450 2D6 (P10635 whole entry): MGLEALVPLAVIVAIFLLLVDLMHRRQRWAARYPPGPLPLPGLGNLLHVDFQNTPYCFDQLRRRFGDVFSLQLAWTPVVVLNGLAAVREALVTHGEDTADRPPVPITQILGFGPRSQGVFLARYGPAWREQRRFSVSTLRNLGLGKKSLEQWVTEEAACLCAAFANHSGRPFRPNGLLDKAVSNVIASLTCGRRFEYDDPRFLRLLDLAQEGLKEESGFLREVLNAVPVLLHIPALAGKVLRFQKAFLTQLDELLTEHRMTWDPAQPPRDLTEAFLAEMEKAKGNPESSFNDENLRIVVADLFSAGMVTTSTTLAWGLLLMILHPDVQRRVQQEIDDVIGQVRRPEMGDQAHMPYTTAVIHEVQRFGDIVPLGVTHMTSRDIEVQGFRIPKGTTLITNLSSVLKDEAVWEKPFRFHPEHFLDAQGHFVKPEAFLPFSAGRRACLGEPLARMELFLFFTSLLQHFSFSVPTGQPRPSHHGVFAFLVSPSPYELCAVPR

[6] = P. falciparum Dd2 growth inhibitors, dose response, SYBR Green, cherry-picked samples (AID 1159567); format: functional, cell-based
Cytochrome P450 2C19 = Cytochrome P450 2C19 (Homo sapiens, UniProt P33261); assay: Cytochrome panel assay with activity outcomes. Panel member name: p450-cyp2c19 Compounds with AC50 equal or less than 10 uM are considered active; format: functional; conditions: read-out: AC50
Chain of Cytochrome P450 2C19 (P33261 whole entry): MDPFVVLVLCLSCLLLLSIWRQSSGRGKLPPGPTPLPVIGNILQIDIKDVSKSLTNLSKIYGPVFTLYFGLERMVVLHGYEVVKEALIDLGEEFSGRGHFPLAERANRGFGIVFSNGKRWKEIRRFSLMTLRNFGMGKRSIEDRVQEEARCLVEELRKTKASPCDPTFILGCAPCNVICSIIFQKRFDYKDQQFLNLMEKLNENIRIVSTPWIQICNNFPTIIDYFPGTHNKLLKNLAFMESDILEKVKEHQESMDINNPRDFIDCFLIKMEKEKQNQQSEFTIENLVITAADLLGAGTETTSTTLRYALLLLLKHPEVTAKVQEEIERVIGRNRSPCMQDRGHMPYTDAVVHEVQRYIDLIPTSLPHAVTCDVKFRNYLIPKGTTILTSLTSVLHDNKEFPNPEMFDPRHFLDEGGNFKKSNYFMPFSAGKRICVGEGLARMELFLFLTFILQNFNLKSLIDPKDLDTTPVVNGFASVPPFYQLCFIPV

[7] = cytotoxicity toward NIH3T3 fibroblasts, dose response, counter-screen, cell-based, ATP luminescence, mouse fibroblasts (AID 2010); format: functional;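 also: cells exposed to compound for about 90 hours before reading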
[8] = inhibitors of intracellular T. cruzi replication, confirmation, NIH3T3 host cells, beta-gal luminescence (AID 2044); format: functional, cell-based;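 also: intracellular parasites grown in NIH/3T3 mouse fibroblasts as host cells; luminescent beta-galactosidase reporter signal from transgenic T. cruzi replicating inside host cells; inhibitors lower the luminescence signal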
Streptococcus = assay: Group A Streptococcus viability loss, dose response, counter-screen for streptokinase expression inhibitor project, luminescence, BacTiterGlo (AID 1915); format: functional, organism-based;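 also: potency for reduction of bacterial viability or growth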
[9] = system: Streptococcus sp. 'group A'; assay: growth inhibition of control SK(-) GAS strain, dose response, counter-screen for streptokinase expression inhibitor project, luminescence, kanamycin, BacTiterGlo, confirmation (AID 1900); format: functional, organism-based
Streptokinase A = target: T5, Streptokinase A (Streptococcus pyogenes serotype M1, UniProt P10520); assay: S. pyogenes streptokinase expression inhibitors, potency, dose response, plasminogen activation absorbance, OD405 (AID 1914); format: functional, Streptococcus pyogenes M1 GAS;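 also: secreted streptokinase activity via plasminogen activation per viability signal from cell pellet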
T5 sequence (P10520 whole entry): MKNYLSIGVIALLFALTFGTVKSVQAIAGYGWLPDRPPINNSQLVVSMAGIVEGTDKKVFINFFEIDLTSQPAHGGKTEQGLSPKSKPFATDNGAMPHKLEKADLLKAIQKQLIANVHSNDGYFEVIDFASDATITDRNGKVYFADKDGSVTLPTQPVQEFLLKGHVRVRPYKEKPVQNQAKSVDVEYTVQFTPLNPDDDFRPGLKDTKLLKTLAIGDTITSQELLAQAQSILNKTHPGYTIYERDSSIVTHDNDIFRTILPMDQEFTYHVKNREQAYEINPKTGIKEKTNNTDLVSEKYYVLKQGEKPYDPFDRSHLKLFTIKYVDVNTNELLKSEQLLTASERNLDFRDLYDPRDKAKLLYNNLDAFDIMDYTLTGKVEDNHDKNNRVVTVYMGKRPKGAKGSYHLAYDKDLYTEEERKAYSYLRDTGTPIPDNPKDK

cells = format: functional

Chain of Cytochrome P450 3A4 (P08684 whole entry): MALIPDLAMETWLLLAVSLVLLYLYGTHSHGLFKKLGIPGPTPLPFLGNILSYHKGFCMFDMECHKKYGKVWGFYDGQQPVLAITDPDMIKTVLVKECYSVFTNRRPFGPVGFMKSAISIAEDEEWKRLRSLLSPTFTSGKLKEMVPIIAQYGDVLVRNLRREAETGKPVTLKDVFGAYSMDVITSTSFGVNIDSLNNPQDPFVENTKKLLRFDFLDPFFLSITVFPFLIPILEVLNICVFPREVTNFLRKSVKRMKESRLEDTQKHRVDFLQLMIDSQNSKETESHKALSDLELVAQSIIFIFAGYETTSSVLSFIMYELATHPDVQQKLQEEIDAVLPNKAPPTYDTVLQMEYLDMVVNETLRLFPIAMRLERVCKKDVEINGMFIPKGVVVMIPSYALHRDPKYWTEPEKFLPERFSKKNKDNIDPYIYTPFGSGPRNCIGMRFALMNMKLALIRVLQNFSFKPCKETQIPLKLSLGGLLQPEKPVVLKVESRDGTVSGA

## O=c1c(-c2cccs2)nc2cnc(Nc3ccccc3)nc2n1C[C@H]1CCCO1
Cytochrome P450 3A4
  AC50: 10 µM (inconclusive)
Cytochrome P450 1A2
  AC50: 2.51 µM (inconclusive)

## Cc1ccc(S(=O)(=O)C(C#N)c2nc3ccccc3nc2N2CCN(C)CC2)cc1C (stereo unspecified)
[1]
  EC50: > 38 µM (not active)
[2]
  EC50: > 150 µM (inactive)

## O=C(CNS(=O)(=O)c1ccc(Br)s1)N1CCC2(CC1)OCCO2
Cytochrome P450 3A4
  AC50: 25.1 µM (inconclusive)
Cytochrome P450 1A2
  AC50: 15.8 µM (inconclusive)

## CN1CCc2c1nc1ccccc1c2NC(=O)CN1CCCC1
[3]
  IC50: 117 µM (active)

## Cc1cccc(C(=O)NCCCNC(=O)c2cccc(C)c2)c1
[4]
  EC50: > 300 µM (not active)
[5]
  EC50: > 300 µM (not active)

## Cc1cccc(NC(=O)N(Cc2nc(O)c3ccccc3n2)C2CCCC2)c1
Cytochrome P450 2D6
  AC50: 39.8 µM (inconclusive)

## N#CC1=C(N)OC2=C(C(=O)CCC2)[C@]12C(=O)N(CC(N)=O)c1ccccc12
[4]
  EC50: > 300 µM (not active)
[5]
  EC50: > 300 µM (not active)

## COc1ccc2c3c(n(C)c2c1)[C@H](CO)N(C(=O)c1ccccc1)CC31CCN(C(=O)c2ccccc2)CC1
[6]
  AC50: 7.29 µM (active)

## COC(=O)c1cc2n(n1)CCN(Cc1ccccc1F)C2=O
Cytochrome P450 1A2
  AC50: 15.8 µM (inconclusive)
Cytochrome P450 2C19
  AC50: 5.01 µM (inconclusive)

## CCN(CC)c1ccc(NC(=O)c2ccc(S(=O)(=O)N3CCOCC3)cc2)cc1
[3]
  IC50: 71.9 µM (active)

## CN1CC[C@@]2(CCCN(C(=O)c3csnn3)C2)C1
Cytochrome P450 2D6
  AC50: 39.8 µM (inconclusive)

## O=C1CCC/C1=c1\s/c(=C\c2cccnc2)c(=O)n1-c1ccccc1
[4]
  EC50: > 300 µM (not active)
[5]
  EC50: 42 µM (active)

## CS(=O)(=O)N1CCC2(CCCN(C(=O)Nc3ccccc3)C2)CC1
Cytochrome P450 1A2
  AC50: 15.8 µM (inconclusive)

## Cc1noc(C)c1S(=O)(=O)NC1CCN(Cc2ccccc2)CC1
[4]
  EC50: 49.2 µM (active)
[5]
  EC50: 35.3 µM (active)

## COc1cccc(/C=N/NC(=O)c2cc(-c3cccn3C)[nH]n2)c1O
[1]
  EC50: 2.95 µM (active)
[2]
  EC50: 23.5 µM (inconclusive)

## Cc1nc(Cl)cc(N/N=C/c2ccc(O)cc2O)n1
[3]
  IC50: 16.6 µM (active)

## CC(=O)Nc1cccc2cc(O)ccc12
[3]
  IC50: 36.8 µM (active)

## Cc1sc(NC(=O)c2ccc(Br)s2)c(C(N)=O)c1C
[1]
  EC50: > 38 µM (not active)
[2]
  EC50: > 150 µM (inactive)

## COc1cc2c(cc1C1C(C#N)=C(N)OC3=C1C(=O)CC(C)(C)C3)OCO2 (stereo unspecified)
[4]
  EC50: > 300 µM (not active)
[5]
  EC50: > 300 µM (not active)

## Clc1cccc(N/N=C/c2ccc(N3CCOCC3)cc2)c1
[7]
  EC50: > 60 µM (not active)
Cytochrome P450 2D6
  AC50: 7.08 µM (inconclusive)
[8]
  EC50: 2.74 µM (active)

## CC1COc2ccccc2N1S(=O)(=O)c1ccccc1 (stereo unspecified)
[2]
  EC50: > 150 µM (inconclusive)

## COc1ccccc1-c1ccc2ncnc(NCCN3CCOCC3)c2c1
Cytochrome P450 2D6
  AC50: 39.8 µM (inconclusive)

## C=C(C)C1Cc2c(C)nn(-c3nc(C)cc(C)n3)c2C1 (stereo unspecified)
Streptococcus
  EC50: > 150 µM (not active)
[9]
  EC50: 25 µM (active)
Streptokinase A
  EC50: > 150 µM (not active)
cells
  IC50: 3.19 µM (active)

## Cn1ccnc1SCC(=O)Nc1sccc1C#N
Cytochrome P450 2D6
  AC50: 25.1 µM (inconclusive)
Cytochrome P450 2C19
  AC50: 7.08 µM (inconclusive)

## Oc1c(C(Nc2cccc(C(F)(F)F)c2)c2cccnc2)ccc2cccnc12 (stereo unspecified)
[1]
  EC50: > 38 µM (not active)
Streptococcus
  EC50: 15.6 µM (active)
[2]
  EC50: > 150 µM (inactive)
[9]
  EC50: 1.71 µM (active)
Streptokinase A
  EC50: > 150 µM (not active)

## N#C/C(=C/c1ccc(N2CCCC2)c([N+](=O)[O-])c1)c1nc2ccccc2[nH]1
Cytochrome P450 1A2
  AC50: 3.55 µM (inconclusive)

## O=C1C2CCCN2C(c2ccccc2)N1c1ccccn1 (stereo unspecified)
[1]
  EC50: > 38 µM (not active)
[2]
  EC50: > 160 µM (inactive)

## CCCc1cn([C@H]2C[C@@H]3O[C@H](CO)CC[C@@H]3O[C@@H]2CCc2ccc(-c3ccc(OC)cc3)cc2)nn1
[6]
  AC50: 4.34 µM (active)

## Cc1cccc(S(=O)(=O)N2CCCCN3[C@H](C2)[C@@H](c2ccc(-c4cccnc4)cc2)[C@@H]3CO)c1
[6]
  AC50: 4.88 µM (active)

## COc1ccc(S(=O)(=O)N2CC[C@@H]3[C@H]2c2cc(-c4ccc(C#N)cc4)ccc2N[C@@H]3CO)cc1
[6]
  AC50: 9.46 µM (active)

## COc1ccc(NCc2cc(O)nc3ccccc23)cc1
[3]
  IC50: 50.5 µM (active)

## COc1ccc(NCC(O)Cn2c(C)c(C)c3ccccc32)cc1 (stereo unspecified)
[3]
  IC50: 70.7 µM (active)

## CS(=O)(=O)Nc1cccc(-c2ccc3ncnc(Nc4ccccc4)c3c2)c1
Cytochrome P450 2D6
  AC50: 25.1 µM (inconclusive)

## Clc1ccccc1-c1nc(/C=N/N2CCOCC2)c2ccccn12
[3]
  IC50: 33.6 µM (active)

## O=C(C[C@@H]1C[C@H]2c3cc(NC(=O)Nc4ccccc4)ccc3O[C@H]2[C@H](CO)O1)NCc1ccccc1
[6]
  AC50: 15.9 µM (active)

## CCCCNCC#CCOc1cc(C)ccc1C(C)C
[3]
  IC50: 196 µM (active)

## CCCCn1c(=O)[nH]c(=O)c2c1nc(-c1ccc(-c3ccccc3Br)o1)n2CCOC
[4]
  EC50: > 300 µM (not active)
[5]
  EC50: > 300 µM (not active)

## CC(C)CN(Cc1c(O)ccc2ccccc12)CC(C)C
[3]
  IC50: 47.5 µM (active)
